{
  "source": "patent US20180133211A1",
  "about": "“METHODS AND MATERIALS FOR PROMOTING BONE FORMATION” (Mayo Foundation for Medical Education and Research, priority 2015, published 2018)",
  "key": {"mouse calvarial explants": {"system": "mouse calvarial explants", "test": "RT-qPCR mRNA expression in calvarial explants", "type": "cell-based", "details": "calvarial explants from neo-natal and adult mice, 3 μM, 12 days ex vivo", "method": "Calvariae from 2 to 3-day-old and from 7-week old C57BL/6 mice were dissected aseptically. The calvarial bone explants were cultured in 48-well plates in α-MEM (Biochrom) containing 10% FCS (Biochrom), 50 μg/mL ascorbic acid (Sigma-Aldrich), 5 mM β-glycerophosphate (Sigma-Aldrich), and 10 μg/mL gentamicin (Sigma-Aldrich). The day after dissection, medium was changed, and a part of the explants was treated with 3 μM L- or DL-SFN for 12 days. Thereafter, one part of the calvariae were fixed for 1 hour in 4% para-formaldehyde (PFA), and mineralization was measured by Alizarin Red S stain (Sigma-Aldrich). For this purpose, Alizarin Red S dye was extracted using 10% cetylpyridinium chloride (CPC) in 10 mM sodiumphosphate (pH=7.0) for 45 minutes at room temperature. Alizarin Red S absorbance was measured at 562 nm in a multi-plate reader (Tecan, Maennedorf, Switzerland) and normalized to total protein amount measured by bicinchoninic acid assay (Thermo Fisher Scientific, Waltham, Mass., USA). […]\nTotal RNA was extracted using the SV Total RNA Isolation kit (Promega) following the supplier's instructions. cDNA was synthesized from about 0.5 μg RNA using the First Strand cDNA Synthesis kit (Roche) as described by the supplier. […] All RT-qPCR assays were performed in triplicate, and expression was evaluated using the comparative quantification method (Pfaffl, Nucleic Acids Res., 29:e45 (2001))."}, "[1]": {"system": "sham operated or ovariectomized (OVX) mice", "test": "Quantitative backscattered electron imaging (qBEI) of bone mineralization, SFN in vivo", "parameters": "species or system mouse", "details": "two-way ANOVA", "method": "Analysis of SFN on mice was performed using a protocol similar to that described elsewhere (Kong et al., Arthritis Rheum., 62:159-170 (2010)). In the experimental setting herein, eight week old sham operated or ovariectomized (OVX) C57B16/J female mice were purchased from Charles River laboratories. Mice were injected with 7.5 mM DL-SFN (200 μL of SFN at a concentration of 63.8 mg/mL/kg dissolved in ethanol and further diluted in PBS) intraperitoneally every other day for five weeks. Control mice received vehicle alone.\nUn-decalcified distal femora from 13 weeks old mice, sham/Crt (n=5), sham/DL-SFN (n=5), OVX/ctrl (n=4) and OVX/DL-SFN (n=5), were fixed and dehydrated in alcohol, embedded in polymethylmethacrylate (PMMA), and prepared for backscattered electron imaging as previously described. qBEI is based on backscattering of electrons from the surface-layer (i.e., the initial ˜1.5 micron) of a bone section. The rate of these backscattered electrons is proportional to the weight concentration of mineral (hydroxyapatite), and thus of that of calcium in bone. Details of the method were described elsewhere (Roschger et al., Bone, 42:456-466 (2008)). A scanning electron microscope (DSM 962, Zeiss, Oberkochen, Germany) equipped with a four quadrant semiconductor backscattered electron detector was used. […]"}, "[2]": {"system": "sham or OVX female C57BL/6 mice", "test": "microCT of femur in estrogen-deficient ovariectomy (OVX) model, GSK126 for 6 weeks", "type": "in vivo, mouse", "details": "for SMI / Tb.N / Tb.Sp / Tb.Th / BV/TV: distal femur metaphysis; for SMI / Tb.N / Tb.Sp / Tb.Th / Ct. Ar / Ct. BV / Ct. Mat.M.Dn / Ct. Ps.Ar / Ct. Th / Ec. Ar / BV/TV: 50 mg/kg, 6 weeks; for SMI / Tb.N / Tb.Sp / Tb.Th / Ct. Ar / Ct. BV / Ct. Mat.M.Dn / Ct. Ps.Ar / Ct. Th / Ec. Ar / Ct. TV / BV/TV: mean; for Ct. Ar / Ct. BV / Ct. Mat.M.Dn / Ct. Ps.Ar / Ct. Th / Ec. Ar / Ct. TV: femoral midshaft; for Ct. TV: GSK126 50 mg/kg daily IP 6 weeks; for BV/TV: trabecular bone", "method": "The effects of GSK126 administration on the skeleton was evaluated in an estrogen-deficient ovariectomy (OVX) model. At about 12 weeks of age, female C57BL/6 mice underwent either sham or OVX surgeries. The following day, animals received daily IP injections of GSK126 or vehicle (DMSO) at 50 mg/kg body weight for 6 weeks as described herein. To label mineralizing bone surfaces and study bone formation rates, mice received subcutaneous injections of tetracycline (25 mg/kg) 14 days prior sacrifice and calcein (10 mg/kg) at 5 days and 24 hours before euthanasia.\nThe quantitative analysis of the femoral metaphysis was performed using a vivaCT 40 scanner (SCANCO Medical AG) with the following parameters: E=55 kVp, 1=145 μA, integration time=300 ms. A 10.5 μm voxel size using a threshold of 220 was applied to all scans at high resolution. Using two-dimensional data from scanned slices, 3D analysis was generated and used to calculate morphometric parameters defining trabecular bone mass and micro-architecture, including Bone Volume/Tissue volume (BV/TV), trabecular number (Tb.N.), trabecular thickness (Tb.Th.), trabecular spacing (Tb.Sp.), and the structure model index (SMI), an indicator of plate-like versus rod-like trabecular architecture."}},
  "data": [
    {"smiles": "C[S+]([O-])CCCCN=C=S", "note": "(racemic) [DL-SFN]", "values": [
      {"measurement": "Tnfsf11 expression", "setting": "mouse calvarial explants", "value": "decreased"},
      {"measurement": "CaPeak and CaWidth of trabecular bone (qBEI)", "setting": "[1]", "value": "no effects"}
    ]},
    {"smiles": "CC[C@H](C)n1cc(C)c2c(C(=O)NCc3c(C)cc(C)[nH]c3=O)cc(-c3ccc(N4CCNCC4)nc3)cc21", "note": "[GSK126, N-[(1,2-dihydro-4,6-dimethyl-2-oxo-3-pyridinyl)methyl]-3-methyl-1-[(1S)-1-methylpropyl]-6-[6-(1-piperazinyl)-3-pyridinyl]-1H-indole-4-carboxamide]", "values": [
      {"measurement": "SMI", "setting": "[2]; OVX", "value": 3.758},
      {"measurement": "Tb.N", "setting": "[2]; OVX", "value": 2.102, "unit": "mm^−1"},
      {"measurement": "Tb.Sp", "setting": "[2]; OVX", "value": 0.499, "unit": "mm"},
      {"measurement": "Tb.Th", "setting": "[2]; OVX", "value": 0.047, "unit": "mm"},
      {"measurement": "Ct. Ar", "setting": "[2]; OVX", "value": 0.771, "unit": "mm^2"},
      {"measurement": "Ct. BV", "setting": "[2]; OVX", "value": 0.405, "unit": "mm^3"},
      {"measurement": "Ct. Mat.M.Dn", "setting": "[2]; OVX", "value": 1067, "unit": "mgHA/cm^3"},
      {"measurement": "Ct. Ps.Ar", "setting": "[2]; OVX", "value": 0.809, "unit": "mm^2"},
      {"measurement": "Ct. Th", "setting": "[2]; OVX", "value": 0.19, "unit": "mm"},
      {"measurement": "Ec. Ar", "setting": "[2]; OVX", "value": 0.038, "unit": "mm^2"},
      {"measurement": "Ct. TV", "setting": "[2]; OVX", "value": 0.425, "unit": "mm^3"},
      {"measurement": "BV/TV", "setting": "[2]; OVX", "value": 1.404, "unit": "%"},
      {"measurement": "SMI", "setting": "[2]; SHAM", "value": 4.168},
      {"measurement": "Tb.N", "setting": "[2]; SHAM", "value": 2.496, "unit": "mm^−1"},
      {"measurement": "Tb.Sp", "setting": "[2]; SHAM", "value": 0.402, "unit": "mm"},
      {"measurement": "Tb.Th", "setting": "[2]; SHAM", "value": 0.042, "unit": "mm"},
      {"measurement": "Ct. Ar", "setting": "[2]; SHAM", "value": 0.782, "unit": "mm^2"},
      {"measurement": "Ct. BV", "setting": "[2]; SHAM", "value": 0.411, "unit": "mm^3"},
      {"measurement": "Ct. Mat.M.Dn", "setting": "[2]; SHAM", "value": 1065, "unit": "mgHA/cm^3"},
      {"measurement": "Ct. Ps.Ar", "setting": "[2]; SHAM", "value": 0.82, "unit": "mm^2"},
      {"measurement": "Ct. Th", "setting": "[2]; SHAM", "value": 0.197, "unit": "mm"},
      {"measurement": "Ec. Ar", "setting": "[2]; SHAM", "value": 0.037, "unit": "mm^2"},
      {"measurement": "Ct. TV", "setting": "[2]; SHAM", "value": 0.430, "unit": "mm^3"},
      {"measurement": "BV/TV", "setting": "[2]; SHAM", "value": 1.642, "unit": "%"},
      {"measurement": "OVX-induced cortical bone loss", "setting": "[2]; ovariectomized female mice, daily regimen, in words", "value": "mitigated"}
    ]}
  ]
}
